# According to US6255285A, “Phenethylamine derivatives” (Chugai Seiyaku Kabushiki Kaisha, priority 1997, dated 2001):
# Square brackets hold non-standard residues; d marks the D form. Peptide text beside a SMILES is read from it. Tyr(3-tBu) = CC(C)(C)c1cc(C[CH](N)C(=O)O)ccc1O; Phg = N[CH](C(=O)O)c1ccccc1
# Columns and labels:
# [1] = biological target: T1, motilin receptor (Oryctolagus cuniculus, UniProt G1T803); assay: Motilin receptor binding test; conditions: rabbit duodenum homogenate, 125I motilin 25 pM; concentration reducing specific binding by 50%
# T1 construct: had the mucous membrane separated and homogenized in 50 mM Tris-HCl buffer to prepare a receptor sample; from tissue; host or cells: rabbit duodenum with the mucosa removed, homogenate
# Method: Motilin Receptor Binding Test
# A motilin receptor binding test was conducted in the following manner [Bormans et al., Regul. Peptides, 15, 143 (1986)]. The duodenum was extracted from a slaughtered rabbit, had the mucous membrane separated and homogenized in 50 mM Tris-HCl buffer to prepare a receptor sample. The sample was incubated together with ^125 I motilin 25 pM and thereafter the radioactivity bound to the receptor was measured. Specific binding was defined as the difference between the radioactivity in the case of adding 1% DMSO in place of the compounds of the examples and that in the case of adding a great excess amount of motilin (10^-7 M). The activity of each compound was expressed by IC50 (in nM), as the concentration sufficient to reduce the specific binding by 50%.
# [2] = test system: motilin-induced contraction of a specimen of longitudinal muscle in the duodenum extracted from a rabbit; assay: Contraction suppressing test: action on motilin-induced contraction of duodenum longitudinal muscle specimen; type: cell-based; conditions: rabbit duodenum specimen in organ bath, Krebs solution 28° C.; effect on dose-dependent contraction by motilin
# Method: Action on the Contraction of a Specimen of Longitudinal Muscle in the Duodenum Extracted from a Rabbit
# The action on the motilin-induced contraction of a specimen of longitudinal muscle in the duodenum extracted from a rabbit was investigated by the following method. A duodenum specimen extracted from a slaughtered rabbit (3×10 mm) was suspended in an organ bath (10 ml) such that the longitudinal muscle would run vertically; the bath was filled with a Krebs solution kept at 28° C. A mixed gas (95% O2 and 5% CO2) was continuously bubbled into the Krebs solution and the contraction of the duodenum specimen was recorded isotonically (with a 1-g load) via an isotonic transducer (TD-111T of Nihon Koden, K.K.) The degree of contraction was expressed in relative values, with the contraction by acetylcholine at a dose of 10^-4 M being taken as 100%. The activity of each compound was calculated as pA2 value indicating its effect on the dose-dependent muscle contraction by the motilin put into the organ bath.
# T1 sequence (G1T803 1-400): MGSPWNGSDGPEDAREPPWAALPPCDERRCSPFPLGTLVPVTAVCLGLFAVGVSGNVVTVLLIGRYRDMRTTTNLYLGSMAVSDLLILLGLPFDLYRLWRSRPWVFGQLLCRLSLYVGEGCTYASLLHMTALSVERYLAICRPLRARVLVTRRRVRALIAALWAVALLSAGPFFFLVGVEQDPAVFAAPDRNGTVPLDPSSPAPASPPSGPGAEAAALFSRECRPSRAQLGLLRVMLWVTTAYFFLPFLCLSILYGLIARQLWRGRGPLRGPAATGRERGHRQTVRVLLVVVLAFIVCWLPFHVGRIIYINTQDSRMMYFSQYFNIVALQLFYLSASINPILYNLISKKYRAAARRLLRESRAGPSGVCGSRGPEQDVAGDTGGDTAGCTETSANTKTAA
IC50 [1] [nM],Structure (SMILES),"Contraction suppressing test, pA2 [2]"
4.3,"CC(C)[C@@H](C(=O)N(C)[C@@H](Cc1ccc(O)c(C(C)(C)C)c1)C(N)=O)N(C)C(=O)[C@@H](N)Cc1ccccc1 [Example 119, Phe-N-Me-Val-N-Me-Tyr(3-tBu)-NH2] (HELM PEPTIDE1{F.[meV].[CN([C@@H](Cc1ccc(O)c(C(C)(C)C)c1)C(=O)[*:2])[*:1]].[am]}$$$$V2.0)",8.59
1.9,"CC(Cc1ccc(O)c(C(C)(C)C)c1)NC(=O)C(C(C)C)N(C)C(=O)[C@@H](N)Cc1ccccc1 (some centres unmarked) [Example 118, N-[2-(3-tert-butyl-4-hydroxyphenyl)-1-methylethyl]-3-methyl-2-(N-methyl-N-phenylalanylamino)butanamide]",8.43
3.7,"CN(C(=O)C(N)Cc1ccccc1)C(C(=O)NC(Cc1ccc(O)c(C(C)(C)C)c1)C(N)=O)c1ccccc1 [Example 18B, Phe-N-Me-D-Phg-Tyr(3-tBu)-NH2]",8.58
12,"CC(C)(C)c1cc(CC(NC(=O)C(NC(=O)C(N)Cc2ccccc2)c2ccccc2)C(N)=O)ccc1O (stereo not drawn) [Example 5, Phe-Phg-Tyr(3-tBu)-NH2] (H-Phe-[Phg]-[Tyr(3-tBu)]-NH2; configuration not given here)",7.81
